Experimental data as given in patent US5650428A, “Arylsulfonamide derivative and pharmaceutical compositions and use thereof” (NKK Corporation, priority 1993, dated 1997).

Experiments:
[1] = biological target: T1, thromboxane A2 (TxA2) receptor (Cavia porcellus, UniProt A0A286Y4I8); experiment: TxA2 antagonist action by binding assay; conditions: washed guinea pig platelets, 1 nM [3H]-SQ29,548, 45 minutes at 25° C.
T1 construct: to obtain washed platelets; from tissue; host or cells: washed platelets of male Hartley guinea pigs
T1 sequence (A0A286Y4I8 1-347): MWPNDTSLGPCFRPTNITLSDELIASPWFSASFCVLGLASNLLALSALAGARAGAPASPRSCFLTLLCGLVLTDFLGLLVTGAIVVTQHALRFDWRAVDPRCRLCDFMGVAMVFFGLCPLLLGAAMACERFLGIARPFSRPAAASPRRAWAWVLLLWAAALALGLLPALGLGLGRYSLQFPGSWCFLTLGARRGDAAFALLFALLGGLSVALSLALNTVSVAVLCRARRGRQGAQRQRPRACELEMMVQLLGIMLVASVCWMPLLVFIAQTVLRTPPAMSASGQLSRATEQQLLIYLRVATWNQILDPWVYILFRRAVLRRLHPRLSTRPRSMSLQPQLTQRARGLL
How it was run: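 Washed platelets from male Hartley guinea pigs, 4×10^8 cells/ml, were incubated with test compound and a labelled ligand for 45 minutes at 25 °C. Bound radioactivity was collected by GF/B filtration and scintillation counting; IC50 came from binding/control-binding ratio.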

[2] = biological target: T2, isolated rat artery (thoracic aorta) (Rattus norvegicus, UniProt P34978); experiment: Inhibitory activity of vasoconstriction of isolated rat artery; type: cell-based; conditions: pA2; rat thoracic aorta ring preparation, 37° C.; read-out: B: Inhibitory activity of vasoconstriction (rat artery) (pA2) (converted)
T2 construct: the thoracic aorta was quickly removed; from tissue; host or cells: thoracic aorta rings of male Wistar rats, endothelium 'gently cleaned'
T2 sequence (P34978 1-341): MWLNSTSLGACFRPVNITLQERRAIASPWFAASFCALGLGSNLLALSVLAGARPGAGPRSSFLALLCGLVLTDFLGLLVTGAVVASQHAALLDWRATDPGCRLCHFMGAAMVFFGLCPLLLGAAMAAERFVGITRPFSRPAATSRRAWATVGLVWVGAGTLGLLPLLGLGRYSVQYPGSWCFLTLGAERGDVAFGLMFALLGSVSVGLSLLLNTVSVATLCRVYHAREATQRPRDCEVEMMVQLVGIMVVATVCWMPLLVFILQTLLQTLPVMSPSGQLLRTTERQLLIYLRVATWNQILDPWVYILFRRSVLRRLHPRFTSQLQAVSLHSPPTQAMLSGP
Method: (2) Inhibitory Activity of Vasoconstriction of Isolated Rat Artery
Rats (Wistar; male; body weight=250-300 g) were stunned by a blow to the head and exsanguinated. Then, the thoracic aorta was quickly removed, and the connective tissue and the endothelium were gently cleaned and then ring preparation was cut. The preparations were suspended in a 25 ml organ bath which was maintained at 37° C. under an aeration of 95% O2 -5% CO2. An initial tension of 1.5 g was applied and preincubation was performed for 60 minutes. The organ bath was filled with Krebs-Henselait solution (NaCl=118, KCl=4.7, CaCl2 2.55, MgSO4 =1.18, KH2 PO4 =1.18, NaHCO3 =24.88, glucose=11.1). The constriction of the samples was ionotropicaly measured using an isometric transducer (UL-10GR, Minebea) and an amplifier (6M92, NEC SANEI) and recorded by a recticorder (RECTI-HORIZ-8K, NEC SANEI).

rat platelet = experiment: Inhibitory activity of aggregation in rat platelet; type: cell-based; conditions: rat platelet rich plasma, arachidonic acid (final concentration 0.5 mM) as inducer; read-out: C: Inhibitory activity of aggregation in rat platelet (IC50; μM)
How it was run: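 Platelet-rich plasma was prepared from citrated (0.38% final) rat abdominal arterial blood and preincubated 1 min at 37°C. Compound was added 2 min before arachidonic acid (0.5 mM final). Light transmission change was recorded for 5 min.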

IC50 [1]	Kb [2]	IC50 (rat platelet)	SMILES
0.5 µM	28.8 nM	0.52 µM	O=C(O)c1ccc(NC(=O)C(COC2CCCCO2)NS(=O)(=O)c2ccc(Cl)cc2)cc1 (racemic) [Example 40, (RS)-N-(4-carboxyphenyl)-2-(4-chlorobenzenesulfonylamino)-3-(tetrahydropyran-2-yloxy)propanamide]
0.088 µM	12.9 nM	0.54 µM	O=C(O)CCc1ccc(NC(=O)C(COC2CCCCO2)NS(=O)(=O)c2ccc(Cl)cc2)cc1 (racemic) [Example 42, (RS)-N-(4-(2-carboxyethyl)phenyl)-2-(4-chlorobenzenesulfonylamino)-3-(tetrahydropyran-2-yloxy)propanamide]
2 µM	126 nM	1.7 µM	O=C(O)COc1ccc(CCNS(=O)(=O)c2ccc(Cl)cc2)cc1 [Control Compound, 4-[2-(4-chlorobenzenesulfonylamino)ethyl]-phenoxy acetic acid, reference compound]
0.4 µM	32.4 nM	0.3 µM	O=C(O)c1cccc(NC(=O)C(COC2CCCCO2)NS(=O)(=O)c2ccc(Cl)cc2)c1 (racemic) [Example 44, (RS)-N-(3-carboxyphenyl)-2-(4-chlorobenzenesulfonylamino)-3-(tetrahydropyran-2-yloxy) propanamide]
0.033 µM	5.89 nM	0.17 µM	O=C(O)Cc1ccc(NC(=O)C(COC2CCCCO2)NS(=O)(=O)c2ccc(Br)cc2)cc1 (racemic) [Example 54, (RS)-2-(4-bromobenzenesulfonylamino)-N-(4-(carboxymethyl)phenyl)-3-(tetrahydropyran-2-yloxy)propanamide]
0.057 µM	6.92 nM	0.18 µM	O=C(O)Cc1ccc(NC(=O)C(COC2CCCCO2)NS(=O)(=O)c2ccc(Cl)cc2)cc1 (racemic) [Example 41, (RS)-N-(4-(carboxymethyl)phenyl)-2-(4-chlorobenzenesulfonylamino)-3-(tetrahydropyran-2-yloxy)propanamide]
	41.7 nM		O=C(O)c1cccc(NC(=O)[C@H](COC2CCCCO2)NS(=O)(=O)c2ccc(Cl)cc2)c1 (stereo partly drawn) [Example 43, (S)-N-(3-carboxyphenyl)-2-(4-chlorobenzenesulfonylamino)-3-(tetrahydropyran-2-yloxy)propanamide]
0.2 µM	12.6 nM		O=C(O)c1ccc(NC(=O)[C@H](COC2CCCCO2)NS(=O)(=O)c2ccc(Cl)cc2)cc1 (stereo partly drawn) [Example 39, (S)-N-(4-carboxyphenyl)-2-(4-chlorobenzenesulfonylamino)-3-(tetrahydropyran-2-yloxy)propanamide]
0.016 µM	3.8 nM	0.53 µM	O=C(O)Cc1ccc(NC(=O)C(COC2CCCCO2)NS(=O)(=O)c2ccc(I)cc2)cc1 (racemic) [Example 55, (RS)-N-(4-(carboxymethyl)phenyl)-2-(4-iodobenzenesulfonylamino)-3-(tetrahydropyran-2-yloxy)propanamide]
